Marks after values point to notes of the source that are not given here.
Tests used:
DYRK1B [1] = molecular target: DYRK1B (Homo sapiens, UniProt Q9Y463); test: Protein kinase assay ([γ-33P]-ATP, RS peptide substrate), DYRK1B; assay type: biochemical; conditions: 15 µM ATP; read-out: IC50 DYRK 1B
Experimental: (§1) DYRK1A, 1B, 2, 3 (human, recombinant, expressed in E. coli as GST fusion proteins) and CLK1, 2, 3, and 4 (mouse, recombinant, expressed in E. coli as GST fusion proteins) were assayed as described for GSK-3 in Buffer A (supplemented extemporaneously with 0.15 mg BSA/mL + 1 mM DTT) with 1 µg of RS peptide ([…]) as a substrate.

CLK3 = CLK3 (Mus musculus, UniProt O35492); test: Protein kinase assay ([γ-33P]-ATP, RS peptide substrate), CLK3; assay type: biochemical; conditions: for IC50: 15 µM ATP; for inhibition at 10 µM: 10 µM compound, read-out: Inhibition at 10 µM CLK3 (class symbol)
Sequence of CLK3 (O35492 whole entry): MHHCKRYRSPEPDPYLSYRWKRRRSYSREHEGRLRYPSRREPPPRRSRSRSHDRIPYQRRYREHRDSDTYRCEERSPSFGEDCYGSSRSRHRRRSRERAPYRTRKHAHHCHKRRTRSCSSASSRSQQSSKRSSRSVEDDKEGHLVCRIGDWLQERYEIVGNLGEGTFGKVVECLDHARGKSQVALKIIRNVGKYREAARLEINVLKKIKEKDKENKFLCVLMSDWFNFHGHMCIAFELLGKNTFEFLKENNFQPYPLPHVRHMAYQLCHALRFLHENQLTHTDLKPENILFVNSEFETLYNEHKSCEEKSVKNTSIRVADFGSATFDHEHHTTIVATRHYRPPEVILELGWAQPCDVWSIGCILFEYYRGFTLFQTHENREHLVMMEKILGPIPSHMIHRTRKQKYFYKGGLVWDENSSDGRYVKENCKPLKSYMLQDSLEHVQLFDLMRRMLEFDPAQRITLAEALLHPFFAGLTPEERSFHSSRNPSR
Experimental: as §1

DYRK2 = molecular target: T1, DYRK2 (Homo sapiens, UniProt Q92630); test: Protein kinase assay ([γ-33P]-ATP, RS peptide substrate), DYRK2; assay type: biochemical; conditions: for IC50: 15 µM ATP; for inhibition at 10 µM: 10 µM compound, read-out: Inhibition at 10 µM DYRK2 (class symbol)
T1 sequence (Q92630 1-601): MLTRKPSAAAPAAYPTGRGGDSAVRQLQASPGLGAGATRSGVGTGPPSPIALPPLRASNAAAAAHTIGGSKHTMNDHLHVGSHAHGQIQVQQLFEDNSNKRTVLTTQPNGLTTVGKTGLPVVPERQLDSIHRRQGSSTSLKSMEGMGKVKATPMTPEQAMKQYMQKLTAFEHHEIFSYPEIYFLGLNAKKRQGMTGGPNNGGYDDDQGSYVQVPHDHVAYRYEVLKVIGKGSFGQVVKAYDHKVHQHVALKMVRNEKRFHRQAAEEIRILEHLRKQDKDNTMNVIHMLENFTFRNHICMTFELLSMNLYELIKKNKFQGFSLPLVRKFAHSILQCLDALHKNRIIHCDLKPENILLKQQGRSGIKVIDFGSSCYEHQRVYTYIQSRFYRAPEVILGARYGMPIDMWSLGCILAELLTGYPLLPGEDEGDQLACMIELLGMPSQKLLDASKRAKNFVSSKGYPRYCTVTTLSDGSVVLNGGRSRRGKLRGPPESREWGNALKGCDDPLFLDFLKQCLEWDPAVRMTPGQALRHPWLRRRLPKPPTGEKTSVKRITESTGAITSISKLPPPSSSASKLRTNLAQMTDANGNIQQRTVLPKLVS
Experimental: as §1

CLK4 = CLK4 (Mus musculus, UniProt O35493); test: Protein kinase assay ([γ-33P]-ATP, RS peptide substrate), CLK4; assay type: biochemical; conditions: 15 µM ATP
Sequence of CLK4 (O35493 whole entry): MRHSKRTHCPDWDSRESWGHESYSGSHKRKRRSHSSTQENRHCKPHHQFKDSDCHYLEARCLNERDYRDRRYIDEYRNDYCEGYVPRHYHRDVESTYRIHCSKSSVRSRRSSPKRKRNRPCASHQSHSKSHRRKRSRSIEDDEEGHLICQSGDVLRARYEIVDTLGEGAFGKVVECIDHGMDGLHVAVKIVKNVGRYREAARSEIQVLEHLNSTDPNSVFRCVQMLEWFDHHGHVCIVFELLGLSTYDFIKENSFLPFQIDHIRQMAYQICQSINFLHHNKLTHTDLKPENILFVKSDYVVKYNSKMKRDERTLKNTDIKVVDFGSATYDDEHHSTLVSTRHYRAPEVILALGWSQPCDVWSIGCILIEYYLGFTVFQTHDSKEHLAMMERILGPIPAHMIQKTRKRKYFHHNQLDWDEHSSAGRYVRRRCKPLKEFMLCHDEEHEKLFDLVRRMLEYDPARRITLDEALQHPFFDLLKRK
Experimental: as §1

DYRK3 = molecular target: T2, DYRK3 (Homo sapiens, UniProt O43781); test: Protein kinase assay ([γ-33P]-ATP, RS peptide substrate), DYRK3; assay type: biochemical; conditions: for IC50: 15 µM ATP; for inhibition at 10 µM: 10 µM compound, read-out: Inhibition at 10 µM DYRK3 (class symbol)
T2 sequence (O43781 1-588): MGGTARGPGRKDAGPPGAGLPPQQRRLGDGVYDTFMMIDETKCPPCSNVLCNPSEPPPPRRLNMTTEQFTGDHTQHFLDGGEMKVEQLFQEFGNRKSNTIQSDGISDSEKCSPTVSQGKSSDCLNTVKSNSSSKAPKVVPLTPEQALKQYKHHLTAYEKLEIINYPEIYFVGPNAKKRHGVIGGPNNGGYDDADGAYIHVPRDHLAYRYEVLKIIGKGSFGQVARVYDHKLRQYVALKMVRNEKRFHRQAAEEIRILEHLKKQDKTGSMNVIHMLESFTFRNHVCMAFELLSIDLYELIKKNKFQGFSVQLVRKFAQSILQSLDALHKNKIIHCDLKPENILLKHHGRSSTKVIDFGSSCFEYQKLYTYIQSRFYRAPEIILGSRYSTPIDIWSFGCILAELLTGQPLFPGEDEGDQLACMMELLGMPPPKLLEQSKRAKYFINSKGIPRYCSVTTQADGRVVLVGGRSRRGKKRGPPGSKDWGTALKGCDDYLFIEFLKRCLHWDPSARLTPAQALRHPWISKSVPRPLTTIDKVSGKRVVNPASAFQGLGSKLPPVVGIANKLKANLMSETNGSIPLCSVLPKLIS
Experimental: as §1

CLK2 = CLK2 (Mus musculus, UniProt O35491); test: Protein kinase assay ([γ-33P]-ATP, RS peptide substrate), CLK2; assay type: biochemical; conditions: 15 µM ATP
Sequence of CLK2 (O35491 whole entry): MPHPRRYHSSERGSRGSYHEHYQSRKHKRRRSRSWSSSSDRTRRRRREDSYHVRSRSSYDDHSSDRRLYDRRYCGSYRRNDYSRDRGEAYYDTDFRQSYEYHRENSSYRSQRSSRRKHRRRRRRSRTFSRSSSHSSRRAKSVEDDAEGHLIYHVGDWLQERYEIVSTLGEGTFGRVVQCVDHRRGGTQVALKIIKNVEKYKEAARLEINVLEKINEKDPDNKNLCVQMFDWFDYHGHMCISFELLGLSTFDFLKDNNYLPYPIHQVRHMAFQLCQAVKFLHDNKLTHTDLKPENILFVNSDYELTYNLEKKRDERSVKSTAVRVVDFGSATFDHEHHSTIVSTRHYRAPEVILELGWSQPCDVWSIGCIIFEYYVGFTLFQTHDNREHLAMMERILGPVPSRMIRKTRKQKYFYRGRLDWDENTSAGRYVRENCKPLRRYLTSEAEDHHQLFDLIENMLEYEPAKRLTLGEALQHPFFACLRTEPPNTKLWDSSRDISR
Experimental: as §1

[2] = Thermodynamic solubility, shake-flask method with HPLC quantification; assay type: physicochemical; conditions: phosphate buffer pH 7.4, 25 °C
Experimental: For solubility assays an aqueous phosphate buffer pH 7.4 was used. The buffer was prepared by dissolving Na2HPO4 × 2 H2O (298 mg), KH2PO4 (19 mg) and NaCl (800 mg) in water (100 mL). The pH was adjusted to 7.4 by addition of hydrochloric acid. The thermodynamic solubility was determined using a shake-flask method with quantification by a HPLC method. The test compounds (500 µg) were incubated with aqueous phosphate buffer pH 7.4 (400 µL) in sealed Whatman MiniUniPrep vials (GE Healthcare, Freiburg, Germany). The mixtures were shaken at 25 °C and 400 rpm for 24–96 h (IKA KS 3000 ic control, IKA-Werke, Staufen, Germany). After 24 h, 48 h and 72 h, the mixtures were visually inspected for remaining solids and the solids were filtered off. The concentrations in the resulting saturated solutions were quantified by isocratic HPLC using calibration with external standard. If equilibrium was not reached after 72 h, solubility of a further sample was determined after 96 h. For calibration, a stock solution of 10 mM of the test compounds in DMSO was prepared and the stock solution was diluted with ACN to suitable concentrations. The AUC at the wavelength maxima was used for quantification.

[3] = Kinetic solubility, laser nephelometry; assay type: physicochemical; conditions: phosphate buffer pH 7.4, nephelometry
Experimental: The kinetic solubility was determined using laser nephelometry. A stock solution of the test compounds in DMSO was prepared and further diluted with DMSO to achieve a dilution series of 8–12 solutions with different concentrations. The DMSO solutions (2 µL) were placed in a row on a 96-well plate and diluted with aqueous phosphate buffer pH 7.4 (198 µL). The well plate was scanned by a nephelometer (Nephelostar Plus, BMG Labtech, Ortenberg, Germany). Unsolved particles scatter the laser light which is detected by the nephelometer. The intensity of the scattered light is proportional to the particle concentration in the suspension. The intensity of the scattered light was plotted versus the concentration to obtain a kick off curve. The concentration at which the compounds began to precipitate was directly read out from the kick off curve.

GSK-3 = test: Protein kinase assay ([γ-33P]-ATP, GS-1 substrate), GSK-3; conditions: for IC50: read-out: IC50 GSK3, 15 µM ATP
[4] = Cytotoxicity, cell viability by tetrazolium dye assay (XTT assay); assay type: cell-based; conditions: human, HeLa cells, read-out: Viability of treated HeLa cells relative to control cells
Experimental: To evaluate the applicability of the 2-substituted indole-3-carbonitrile compounds in cell culture experiments, we assessed toxicity of 6f, 6h, 6s and 13b on HeLa cells by viability assays (Table 4).
The inhibitors were added to the cultured cells from stock solutions in DMSO to the desired final concentration. For cytotoxicity assays, HeLa cells were grown in 96-well plates (20,000–30,000 cells per well) and incubated with the test compounds for 3 days before cell viability was evaluated with the help of a tetrazolium dye assay (XTT assay, AppliChem GmbH, Darmstadt, Germany).

CLK1 = CLK1 (Mus musculus, UniProt P22518); test: Protein kinase assay ([γ-33P]-ATP, RS peptide substrate), CLK1; assay type: biochemical; conditions: for IC50: 15 µM ATP
Sequence of CLK1 (P22518 whole entry): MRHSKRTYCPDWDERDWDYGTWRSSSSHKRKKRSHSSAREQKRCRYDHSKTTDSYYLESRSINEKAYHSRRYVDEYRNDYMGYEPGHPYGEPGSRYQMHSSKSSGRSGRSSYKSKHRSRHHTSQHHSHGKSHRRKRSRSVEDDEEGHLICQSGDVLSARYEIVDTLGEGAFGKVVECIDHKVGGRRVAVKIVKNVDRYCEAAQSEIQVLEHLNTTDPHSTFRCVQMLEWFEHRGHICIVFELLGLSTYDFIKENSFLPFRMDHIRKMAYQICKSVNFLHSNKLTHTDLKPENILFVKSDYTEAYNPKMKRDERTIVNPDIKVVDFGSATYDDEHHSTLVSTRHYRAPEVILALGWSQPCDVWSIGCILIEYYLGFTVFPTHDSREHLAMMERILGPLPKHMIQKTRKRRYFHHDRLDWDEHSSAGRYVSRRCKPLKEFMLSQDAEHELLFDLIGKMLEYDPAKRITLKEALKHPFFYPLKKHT
Experimental: as §1

DYRK1A [5] = molecular target: T3, DYRK1A (Homo sapiens, UniProt Q13627); test: Ligand-lipophilicity efficiency (pIC50 minus calculated logP)
Experimental: All new compounds were evaluated based on their physicochemical properties regarding Lipinski’s rule of five and the ligand-lipophilicity efficiency (LLE). Both concepts are used to assess the druglikeness of drug development candidates. […] LLE is calculated from pIC50 minus calculated logP [46].

DYRK1A [6] = molecular target: T3, DYRK1A; test: Protein kinase assay ([γ-33P]-ATP, RS peptide substrate), DYRK1A; assay type: biochemical; conditions: for IC50: 15 µM ATP, read-out: IC50 DYRK 1A
[7] = system: DYRK1A (phosphorylation of T434 in SF3B1) in HeLa cells; test: Inhibition of endogenous DYRK1A activity in HeLa cells (phosphorylation of T434 in GFP-SF3B1-NT, Western blot); assay type: cell-based
[8] = system: DYRK1A-mediated tau phosphorylation and Aβ production; parameters: method as in PMID 25556849; conditions: cellular; cited from earlier work
DYRK1A [9] = conditions: read-out: IC50 DYRK1A; cited from earlier work
DYRK1B [10] = system: DYRK1B; parameters: method as in PMID 27766861, PMID 25268714, PMID 25264830; conditions: cited from earlier work
[11] = pIC50 (DYRK1A) minus calculated logP

Sequence of DYRK1B (Q9Y463 whole entry, the tested form may be a part): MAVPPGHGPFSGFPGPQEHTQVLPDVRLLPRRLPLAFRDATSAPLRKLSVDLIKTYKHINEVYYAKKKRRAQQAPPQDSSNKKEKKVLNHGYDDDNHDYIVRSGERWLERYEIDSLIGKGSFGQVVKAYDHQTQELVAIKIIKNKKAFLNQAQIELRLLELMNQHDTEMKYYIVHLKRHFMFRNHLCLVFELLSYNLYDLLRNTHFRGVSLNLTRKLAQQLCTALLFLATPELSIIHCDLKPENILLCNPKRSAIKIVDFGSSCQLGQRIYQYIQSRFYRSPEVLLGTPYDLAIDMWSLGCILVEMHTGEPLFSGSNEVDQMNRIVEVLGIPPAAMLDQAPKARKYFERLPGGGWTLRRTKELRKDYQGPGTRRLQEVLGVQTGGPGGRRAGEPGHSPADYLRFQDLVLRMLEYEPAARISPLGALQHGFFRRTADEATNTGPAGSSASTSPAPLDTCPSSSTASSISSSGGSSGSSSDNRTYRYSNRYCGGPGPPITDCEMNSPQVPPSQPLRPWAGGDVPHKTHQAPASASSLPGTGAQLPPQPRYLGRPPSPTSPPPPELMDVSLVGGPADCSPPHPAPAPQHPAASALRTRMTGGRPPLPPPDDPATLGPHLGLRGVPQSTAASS

Row | SMILES | IC50 (DYRK1B [1]) | IC50 (DYRK2) | IC50 (CLK4) | IC50 (DYRK3) | IC50 (CLK2) | Sexp., therm., pH 7.4 [2] | Sexp., kin., pH 7.4 [3] | viability at 3 days, 1 µM [4] | viability at 3 days, 3 µM [4] | viability at 3 days, 10 µM [4] | IC50 (CLK1) | inhibition at 10 µM (CLK3) | LLE (DYRK1A [5]; Table S2) | LLE (DYRK1A [5]; [11]) | IC50 (DYRK1A [6]) | further results
1 | N#Cc1c[nH]c2c(Cl)cccc12 [Compound 6a, 7-Chloro-1H-indole-3-carbonitrile] | > 10000 nM | > 10000 nM | > 10000 nM | > 10000 nM | > 10000 nM | 143 ± 6.3^c µM | 116 ± 14 µM | – | – | – | – | – | – | – | – | IC50 (CLK3): > 10000 nM; IC50 (GSK-3): > 10000 nM
2 | N#Cc1c(-c2ccccc2)[nH]c2c(I)cccc12 [Compound 6h, 7-Iodo-2-phenyl-1H-indole-3-carbonitrile] | 570 nM | > 10000 nM | 50 nM | > 10000 nM | 2000 nM | <0.5 µM | 4.57 (4.11–5.03) µM | 97% | 97% | 87% | 80 nM | – | – | – | – | IC50 (CLK3): > 10000 nM
3 | N#Cc1c(C2CC2)[nH]c2c(I)cccc12 [Compound 6r, 2-Cyclopropyl-7-iodo-1H-indole-3-carbonitrile] | 500 nM | 8000 nM | 100 nM | > 10000 nM | 1000 nM | <0.5 µM | 38.1 (37.6–38.6) µM | – | – | – | 110 nM | < 20% | 3.37 | 3.37 | 140 nM | Inhibition at 10 µM GSK3 (class symbol) (GSK-3; 10 µM compound): - (-: less than 20% inhibition at 10 µM, IC50 was not determined)
4 | N#Cc1c(C2CCCC2)[nH]c2c(I)cccc12 [Compound 6s, 2-Cyclopentyl-7-iodo-1H-indole-3-carbonitrile] | 600 nM | – | 100 nM | – | 1000 nM | <0.5 µM | 16.2 (15.2–17.3) µM | 99% | 100% | 82% | 120 nM | < 20% | 2.78 | 2.78 | 70 nM | IC50 ([7]; Homo sapiens, HeLa cells expressing GFP-SF3B1-NT, 18 h, read-out: IC50 inhibition of endogenous DYRK1A activity in HeLa cells (pT434 SF3B1)): 520 nM; inhibition at 10 µM (DYRK2): < 20%; inhibition at 10 µM (DYRK3): < 20%; IC50 (GSK-3): > 10000 nM
5 | N#Cc1cn(Cc2ccccc2)c2c(Br)cccc12 [Compound 13b, 1-Benzyl-7-bromo-1H-indole-3-carbonitrile] | – | – | – | – | – | – | – | 94% | 94% | 66% | – | – | – | – | – | Effect on the phosphorylation of SF3B1 on T434 ([7]; HeLa cells, negative control): did not affect; remaining activity at 10 µM (DYRK1A [6]; 10 µM compound, compared to controls, read-out: Residual Activity at 10 µM DYRK 1A): 81%; Residual Activity at 10 µM GSK3 (GSK-3; 10 µM compound, compared to controls): 114%; remaining activity at 10 µM (CLK1; 10 µM compound, compared to controls, read-out: Residual Activity at 10 µM CLK1): 53%
6 | Cn1c(-c2ccccc2)c(C#N)c2cccc(I)c21 [Compound 13f, 7-Iodo-1-methyl-2-phenyl-1H-indole-3-carbonitrile] | 2100 nM | – | 1000 nM | – | > 10000 nM | <0.5 µM | 37.5 (36.6–38.4) µM | – | – | – | 600 nM | < 20% | 1.54 | 1.54 | 650 nM | inhibition at 10 µM (DYRK2): < 20%; inhibition at 10 µM (DYRK3): < 20%; Inhibition at 10 µM GSK3 (class symbol) (GSK-3; 10 µM compound): - (-: less than 20% inhibition at 10 µM, IC50 was not determined)
7 | COC(=N)c1nc2ccc3ncnc(Nc4ccc(OC)cc4F)c3c2s1 [EHT 5372] | – | – | – | – | – | – | – | – | – | – | – | – | – | – | – | IC50 [8]: 1060 to 1170 nM; IC50 (DYRK1A [9]): 0.22 nM; IC50 (DYRK1B [10]): […]

Reference: paper PMC6017736, “Indole-3-Carbonitriles as DYRK1A Inhibitors by Fragment-Based Drug Design” (Molecules : A Journal of Synthetic Chemistry and Natural …, 2018)
